Measured values published in article PMC13351981, “A multiscale screening platform for rapid GPCR variant profiling reveals color-tuned JSR1 mutants” (Biophysical Journal, 2025).

Legend:
Experiment in all cases: UV/Vis absorption by HPLC-SEC diode array after reconstitution and purification
Assay type in all cases: binding
Details in all cases: 50 uM 9-cis retinal reconstitution; covalent (Schiff base to K321); pH 6.5, 20 C, LMNG/CHS
[1] = target: T1, Jumping Spider Rhodopsin 1 (JSR1) (Hasarius adansoni, UniProt B1B1U5, S199F)
T1 construct: gene HaRh1; JSR1 WT + C-terminal 3C site, Twin-Strep, TEV, eGFP, His8; Hi5 insect cells (baculovirus); tags removed by HRV 3C; monomer in LMNG/CHS
T1 sequence (B1B1U5 entry or part of it S199F): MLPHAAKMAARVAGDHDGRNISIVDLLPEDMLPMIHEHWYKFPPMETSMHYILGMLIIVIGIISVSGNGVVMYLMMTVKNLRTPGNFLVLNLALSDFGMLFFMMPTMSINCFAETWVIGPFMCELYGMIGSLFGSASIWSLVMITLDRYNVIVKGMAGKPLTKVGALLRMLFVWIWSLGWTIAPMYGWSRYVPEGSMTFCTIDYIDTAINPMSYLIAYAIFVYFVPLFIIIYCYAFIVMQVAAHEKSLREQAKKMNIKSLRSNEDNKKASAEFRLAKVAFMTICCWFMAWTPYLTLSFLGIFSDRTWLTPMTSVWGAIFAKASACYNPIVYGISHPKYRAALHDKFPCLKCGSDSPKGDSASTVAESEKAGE

[2] = target: T2, Jumping Spider Rhodopsin 1 (JSR1) (Hasarius adansoni, UniProt B1B1U5)
T2 construct: gene HaRh1; JSR1 WT + C-terminal 3C site, Twin-Strep, TEV, eGFP, His8; Hi5 insect cells (baculovirus); tags removed by HRV 3C; monomer in LMNG/CHS
T2 sequence (B1B1U5 entry or part of it): as the sequence (B1B1U5 entry or part of it S199F) above, with F199S counted along it

[3] = target: T3, Jumping Spider Rhodopsin 1 (JSR1) (Hasarius adansoni, UniProt B1B1U5, S199V)
T3 construct: gene HaRh1; JSR1 WT + C-terminal 3C site, Twin-Strep, TEV, eGFP, His8; Hi5 insect cells (baculovirus); tags removed by HRV 3C; monomer in LMNG/CHS
T3 sequence (B1B1U5 entry or part of it S199V): as the sequence (B1B1U5 entry or part of it S199F) above, with F199V counted along it

[4] = target: T4, Jumping Spider Rhodopsin 1 (JSR1) (Hasarius adansoni, UniProt B1B1U5, S199H)
T4 construct: gene HaRh1; JSR1 WT + C-terminal 3C site, Twin-Strep, TEV, eGFP, His8; Hi5 insect cells (baculovirus); tags removed by HRV 3C; monomer in LMNG/CHS
T4 sequence (B1B1U5 entry or part of it S199H): as the sequence (B1B1U5 entry or part of it S199F) above, with F199H counted along it

[5] = target: T5, Jumping Spider Rhodopsin 1 (JSR1) (Hasarius adansoni, UniProt B1B1U5, S199I)
T5 construct: gene HaRh1; JSR1 WT + C-terminal 3C site, Twin-Strep, TEV, eGFP, His8; Hi5 insect cells (baculovirus); tags removed by HRV 3C; monomer in LMNG/CHS
T5 sequence (B1B1U5 entry or part of it S199I): as the sequence (B1B1U5 entry or part of it S199F) above, with F199I counted along it

[6] = target: T6, Jumping Spider Rhodopsin 1 (JSR1) (Hasarius adansoni, UniProt B1B1U5, S199L)
T6 construct: gene HaRh1; JSR1 WT + C-terminal 3C site, Twin-Strep, TEV, eGFP, His8; Hi5 insect cells (baculovirus); tags removed by HRV 3C; monomer in LMNG/CHS
T6 sequence (B1B1U5 entry or part of it S199L): as the sequence (B1B1U5 entry or part of it S199F) above, with F199L counted along it

[7] = target: T7, Jumping Spider Rhodopsin 1 (JSR1) (Hasarius adansoni, UniProt B1B1U5, S199Y)
T7 construct: gene HaRh1; JSR1 WT + C-terminal 3C site, Twin-Strep, TEV, eGFP, His8; Hi5 insect cells (baculovirus); tags removed by HRV 3C; monomer in LMNG/CHS
T7 sequence (B1B1U5 entry or part of it S199Y): as the sequence (B1B1U5 entry or part of it S199F) above, with F199Y counted along it

With `CC1=C(/C=C/C(C)=C\C=C\C(C)=C\C=O)C(C)(C)CCC1` [9-cis retinal] the “UV/Vis absorption by HPLC-SEC diode array after reconstitution and purification” value (“UV/Vis absorption” below) [1] was “These mutations cause a full deprotonation in the 9-cis retinal-bound ground state”, the “UV/Vis absorption” value [2] was “We observed that all mutants incorporated 9-cis retinal successfully|established workflow with 9-cis retinal-reconstituted JSR1” and the “UV/Vis absorption” value [3] was “These mutations cause a full deprotonation in the 9-cis retinal-bound ground state”. The “UV/Vis absorption” value [4] was “These mutations cause a full deprotonation in the 9-cis retinal-bound ground state”, the “UV/Vis absorption” value [5] was “These mutations cause a full deprotonation in the 9-cis retinal-bound ground state” and the “UV/Vis absorption” value [6] was “These mutations cause a full deprotonation in the 9-cis retinal-bound ground state”. For the same compound, the “UV/Vis absorption” value [7] was “These mutations cause a full deprotonation in the 9-cis retinal-bound ground state”.
